Laboratory results as given in PubChem BioAssay AID1963978 (Molecular Pharmacology Branch, DTP, NCI, 2024).
pIC50: −log10 of the molar value.

System: 616215-338-R-J1-PDC spheroids with HUVEC/MSC, viability
Experiment: Anticancer human tumor 616215-338-R-J1-PDC patient-derived colon adenocarcinoma cell line growth inhibition [PI3K]
Conditions: for pIC50: curve of first compound; for viability, T/C: stronger effect = lower value
Procedure, shortened: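 High-throughput combination screen: PI3K inhibitors crossed with targeted small molecules on complex spheroids of tumor cells, HUVEC and MSCs at 37 degrees C, 5% CO2. Top concentration was at or near clinical Cmax (otherwise 10 microM), with half-log decrements.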

[1] = second compound 0.00316 µM, first compound 0.0316 µM
[2] = second compound 0.00316 µM, first compound 0.1 µM
[3] = second compound 0.00316 µM, first compound 0.316 µM
[4] = second compound 0.00316 µM, first compound 1 µM
[5] = second compound 0.00316 µM, first compound 3.16 µM
[6] = second compound 0.00316 µM, first compound 10 µM
[7] = second compound 0.01 µM, first compound 0.0316 µM
[8] = second compound 0.01 µM, first compound 0.1 µM
[9] = second compound 0.01 µM, first compound 0.316 µM
[10] = second compound 0.01 µM, first compound 1 µM
[11] = second compound 0.01 µM, first compound 3.16 µM
[12] = second compound 0.01 µM, first compound 10 µM
[13] = second compound 0.0316 µM, first compound 0.0316 µM
[14] = second compound 0.0316 µM, first compound 0.1 µM
[15] = second compound 0.0316 µM, first compound 0.316 µM
[16] = second compound 0.0316 µM, first compound 1 µM
[17] = second compound 0.0316 µM, first compound 3.16 µM
[18] = second compound 0.0316 µM, first compound 10 µM
[19] = second compound 0.1 µM, first compound 0.0316 µM
[20] = second compound 0.1 µM, first compound 0.1 µM
[21] = second compound 0.1 µM, first compound 0.316 µM
[22] = second compound 0.1 µM, first compound 1 µM
[23] = second compound 0.1 µM, first compound 3.16 µM
[24] = second compound 0.1 µM, first compound 10 µM
[25] = second compound 0.316 µM, first compound 0.0316 µM
[26] = second compound 0.316 µM, first compound 0.1 µM
[27] = second compound 0.316 µM, first compound 0.316 µM
[28] = second compound 0.316 µM, first compound 1 µM
[29] = second compound 0.316 µM, first compound 3.16 µM
[30] = second compound 0.316 µM, first compound 10 µM
[31] = second compound 1 µM, first compound 0.0316 µM
[32] = second compound 1 µM, first compound 0.1 µM
[33] = second compound 1 µM, first compound 0.316 µM
[34] = second compound 1 µM, first compound 1 µM
[35] = second compound 1 µM, first compound 3.16 µM
[36] = second compound 1 µM, first compound 10 µM
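Note: spheroids exposed to agents for seven days before the viability read.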

`CNC(=O)c1ccc(N2C(=S)N(c3ccc(C#N)c(C(F)(F)F)c3)C(=O)C2(C)C)cc1F` + CC(Nc1ccc2c(c1)OCCn1cc(N3C(=O)OCC3C(F)F)nc1-2)C(N)=O gave a pIC50 (second compound 0.00316 µM) of under 5.00, a pIC50 (second compound 0.01 µM) of under 5.00 and a pIC50 (second compound 0.0316 µM) of under 5.00. The pIC50 (second compound 0.1 µM) was under 5.00, the pIC50 (second compound 0.316 µM) was under 5.00 and the pIC50 (second compound 1 µM) was under 5.00. It also gave a viability, T/C [1] of 102%, a viability, T/C [2] of 89.1% and a viability, T/C [3] of 101%. It also gave a viability, T/C [4] of 94.5%, a viability, T/C [5] of 112% and a viability, T/C [6] of 100%. For the same molecule, the viability, T/C [7] was 94.7%, the viability, T/C [8] was 101% and the viability, T/C [9] was 98.3%. The viability, T/C [10] was 105%, the viability, T/C [11] was 99.7% and the viability, T/C [12] was 95%. For the same molecule, the viability, T/C [13] was 105%, the viability, T/C [14] was 94% and the viability, T/C [15] was 102%. For the same molecule, the viability, T/C [16] was 97.9%, the viability, T/C [17] was 99.8% and the viability, T/C [18] was 102%. It also gave a viability, T/C [19] of 102%, a viability, T/C [20] of 87.2% and a viability, T/C [21] of 110%. For the same molecule, the viability, T/C [22] was 97.7%, the viability, T/C [23] was 96.2% and the viability, T/C [24] was 108%. The viability, T/C [25] was 95%, the viability, T/C [26] was 113% and the viability, T/C [27] was 107%. The viability, T/C [28] was 102%, the viability, T/C [29] was 102% and the viability, T/C [30] was 94.5%. The viability, T/C [31] was 104%, the viability, T/C [32] was 94.2% and the viability, T/C [33] was 102%. It also gave a viability, T/C [34] of 104%, a viability, T/C [35] of 104% and a viability, T/C [36] of 86.7%.
`Cn1nccc1Nc1nccc(-c2ccn(C(CO)c3ccc(Cl)c(F)c3)c(=O)c2)n1` (centres undefined) + CC(Nc1ccc2c(c1)OCCn1cc(N3C(=O)OCC3C(F)F)nc1-2)C(N)=O showed a pIC50 (second compound 0.00316 µM) of 5.34, a pIC50 (second compound 0.01 µM) of 5.41 and a pIC50 (second compound 0.0316 µM) of 5.63. The pIC50 (second compound 0.1 µM) was 5.94, the pIC50 (second compound 0.316 µM) was 6.01 and the pIC50 (second compound 1 µM) was 5.91. The viability, T/C [1] was 94.1%, the viability, T/C [2] was 87% and the viability, T/C [3] was 74.5%. The viability, T/C [4] was 71.3%, the viability, T/C [5] was 53.8% and the viability, T/C [6] was 40.1%. For the same molecule, the viability, T/C [7] was 100%, the viability, T/C [8] was 97.6% and the viability, T/C [9] was 81.8%. It also gave a viability, T/C [10] of 71.1%, a viability, T/C [11] of 50.7% and a viability, T/C [12] of 41%. It also gave a viability, T/C [13] of 86.8%, a viability, T/C [14] of 103% and a viability, T/C [15] of 87.7%. For the same molecule, the viability, T/C [16] was 58.3%, the viability, T/C [17] was 54.2% and the viability, T/C [18] was 38.4%. The viability, T/C [19] was 96.8%, the viability, T/C [20] was 91.6% and the viability, T/C [21] was 78.1%. It also gave a viability, T/C [22] of 50.8%, a viability, T/C [23] of 38.8% and a viability, T/C [24] of 33%. The viability, T/C [25] was 92.5%, the viability, T/C [26] was 100% and the viability, T/C [27] was 66.8%. It also gave a viability, T/C [28] of 52.6%, a viability, T/C [29] of 37.4% and a viability, T/C [30] of 29.1%. It also gave a viability, T/C [31] of 96.8%, a viability, T/C [32] of 93.7% and a viability, T/C [33] of 72.5%. It also gave a viability, T/C [34] of 44.9%, a viability, T/C [35] of 40.5% and a viability, T/C [36] of 6.88%.
